According to patent US20220233563A1, “Methods of Treatments Based Upon Anthracycline Responsiveness” (The Board of Trustees of the Leland Stanford Junior …, priority 2019, published 2022):

Assays:
[1] = tested on: HCC1954 breast cancer cell line; experiment: Cell viability after drug treatment of HCC1954 cells with inducible shRNA knockdown of KDM4B; format: cell-based; conditions: KDM4B knocked down four days, then drug for three days; normalized to DMSO vehicle-only controls; FIG. 26
Experimental: To functionally evaluate the role of KDM4B expression in anthracycline sensitivity, three inducible shRNA knockdown constructs were used to lower the levels of KDM4B protein in the HCC1954 breast cancer cell line (FIG. 24). […] The expression KDM4B was knocked down for four days, and then the cells were treated with either doxorubicin, etoposide (a non-anthracycline TOP2 inhibitor) or paclitaxel (a taxane commonly used to treat breast cancer that functions via tubulin inhibition) for three days, after which cell viability was measured (FIG. 25). All experiments were normalized to DMSO vehicle-only controls and were performed under both induced and non-induced conditions.

[2] = tested on: HCC1954 breast cancer cell line; experiment: Cell viability after drug treatment of HCC1954 cells with inducible shRNA knockdown of KAT6B; format: cell-based; conditions: three inducible shRNA constructs against KAT6B in HCC1954; FIG. 31
Experimental: A similar experiment was performed by knocking down KAT6B expression to evaluate the role of KAT6B expression in anthracycline sensitivity. Three inducible shRNA knockdown constructs were used to lower the levels of KAT6B protein in the HCC1954 breast cancer cell line.

[3] = tested on: HCC1954 breast cancer cell line; conditions: unmodified HCC1954, ER-/HER2+, not TOP2A amplified; cited from earlier work

Row | SMILES | change in drug sensitivity (cell viability) upon knockdown of KDM4B [1] | change in drug sensitivity (cell viability) upon knockdown of KAT6B [2] | doxorubicin sensitivity of the HCC1954 cell line [3]
1 | COc1cc([C@@H]2c3cc4c(cc3[C@@H](O[C@@H]3O[C@@H]5CO[C@@H](C)O[C@H]5[C@H](O)[C@H]3O)[C@H]3COC(=O)[C@H]23)OCO4)cc(OC)c1O [etoposide] | induced resistance | induced resistance | 
2 | CC(=O)O[C@H]1C(=O)[C@@]2(C)[C@H]([C@H](OC(=O)c3ccccc3)[C@]3(O)C[C@H](OC(=O)[C@H](O)[C@@H](NC(=O)c4ccccc4)c4ccccc4)C(C)=C1C3(C)C)[C@]1(OC(C)=O)CO[C@@H]1C[C@@H]2O [paclitaxel] | remained sensitive | remained sensitive | 
3 | COc1cccc2c1C(=O)c1c(O)c3c(c(O)c1C2=O)C[C@@](O)(C(=O)CO)C[C@@H]3O[C@H]1C[C@H](N)[C@H](O)[C@H](C)O1 [doxorubicin] | induced resistance | induced resistance | doxorubicin-sensitive
